This note sets out measurements from US5068349A, “Mitomycin derivatives” (Kyowa Hakko Kogyo Co., Ltd., priority 1988, dated 1991).

≈ marks a conversion by molar mass, not a printed value.

In general, MIC refers to the smallest concentration in the dilution series that meets the test's criterion for growth inhibition. A higher MIC goes with weaker potency. The ED50 is the dose at which the effect has come halfway, by size or by number of responders. A high value points to weaker potency. One may read the LD50 as the dose at which mortality reaches 50%.

In series [1] the test system is Staphylococcus aureus ATCC 6538P. Nature of the series: minimum growth inhibitory concentration, agar dilution method (SA). In kind it is cell-based. The following applies: ATCC6538P, pH 7.0. The procedure: (§1) The antibacterial activity of Compounds (I) against various bacteria [minimum growth inhibitory concentration (μ g/ml)] is shown in Table 3.
(§2) The minimum growth inhibitory concentration was determined by the agar dilution method at pH 7.0. In the table, names of bacteria are shown by the following symbols.
SA : Staphylococcus aureus ATCC 6538P

Series [2] deals with Klebsiella pneumoniae ATCC 10031. In words: minimum growth inhibitory concentration, agar dilution method (KP). Type of series: cell-based. The following applies: ATCC10031, pH 7.0. The method, then:
as §1, §2
KP : Klebsiella pneumoniae ATCC 10031

The test system of series [3] is Streptococcus faecium ATCC 10541. In words: minimum growth inhibitory concentration, agar dilution method (SF). In kind it is cell-based. Conditions: Enterococcus faecium, ATCC10541, pH 7.0. The procedure: as §1, §2
SF : Streptococcus faecium ATCC 10541
(Agar dilution tests growth on a series of plates holding different concentrations.)

For series [4], the system named is Proteus vulgaris ATCC 6897. Nature of the series: minimum growth inhibitory concentration, agar dilution method (PV). In kind it is cell-based. The following applies: ATCC6897, pH 7.0. The procedure:
as §1, §2
PV : Proteus vulgaris ATCC 6897

Another series relates to Sarcoma 180 solid tumor. In words: Determination of ED50 against Sarcoma 180 solid tumor. In kind it is in vivo. Conditions: Mus musculus, dose at T/C 0.5 (tumor volume, 7 days after implantation), male ddY mice, 24 hours after implantation. The procedure:
(§3) LD50 and ED50 were determined by the following methods, respectively.
(2) Determination of ED50
Sarcoma 180 cells (5×10^6 cells) were implanted intraperitoneally into a ddY mouse and the cells were collected from the ascitic fluid of the animal 7 days after the implantation. The cells were washed once with sterilized physiological saline solution and then suspended in sterilized physiological saline solution to prepare a cell suspension containing 5×10^7 cells/ml. The suspension (0.1 ml) was subcutaneously implanted into the right axilla of male ddY mice weighing 20±2 g.
A test compound was dissolved in physiological saline solution or Tween 80-containing physiological saline solution, and 0.1 to 0.2 ml of the solution was administered to 5 mice as one group intraperitoneally or intravenously 24 hours after the implantation of the tumor cells.
The anti-tumor activity of the test compound was determined by measuring the major axis (a) and the minor axis (b) of the tumor 7 days after the implantation, calculating a value of (a)×(b)^2 /2 corresponding to the volume of the tumor, and calculating a ratio T/C of the volume (T) of the group which received the test compound to the volume (C) of the control group which received no test compound T/C at each dose given was plotted on a graph in which T/C is shown by an ordinary scale on the vertical axis and a dose is shown by a logarithmic scale on the abscissa. The relationship between the dose and T/C was determined to be a straight line by the least-squares method.

The nature of series [5]: Determination of LD50 (single administration, 14 days observation). The following applies: mouse, in vivo, ddY mice, Behrens Kaerber's method. The method, then: as §3
(1) Determination of LD50
Five ddY mice were used for each group, and the test compounds were administered once to the mice intraperitoneally or intravenously. […] LD50 was calculated from the death rate of each group according to the Behrens Kaerber's method.

Setting [6] is: Sarcoma-180, ip, 168 h, intraperitoneal.
Setting [7] is: Sarcoma-180, 168 h, intravenous.

Regarding `COCC1=C(N)C(=O)C2=C(C1=O)N1CC3C(N3C)C1(OC)C2COC(N)=O` (stereo not drawn) [Compound 1, 6-Demethyl-6-methoxymethylporfiromycin], the MIC in series [1] is 0.31 µg/mL (≈ 0.819 µM); in series [2] it was 0.63 µg/mL (≈ 1.66 µM); in series [3], 0.63 µg/mL (≈ 1.66 µM); in series [4], over 40 µg/mL.
For `COCC1=C(N)C(=O)C2=C(C1=O)N1CC3NC3C1(OC)C2COC(N)=O` (stereo not drawn) [Compound 2, 6-Demethyl-6-methoxymethylmitomycin C], the minimal inhibitory concentration (MIC) in series [1] amounted to 1.3 µg/mL (≈ 3.57 µM); in series [2], 0.31 µg/mL (≈ 0.851 µM); in series [3], 1.3 µg/mL (≈ 3.57 µM); in series [4] it was 1.3 µg/mL (≈ 3.57 µM). Moreover, the ED50 in the series with Sarcoma 180 solid tumor (setting [6]) was found to be 34 mg/kg. This compound returned an LD50 at 336 h in series [5] (ip, intraperitoneal) of 75 mg/kg.
On to `COCC1=C(OC)C(=O)C2=C(C1=O)N1CC3NC3C1(OC)C2COC(N)=O` (stereo not drawn) [Compound 4, 6-Demethyl-6-methoxymethylmitomycin A], for which the MIC in series [1] was 10 µg/mL (≈ 26.4 µM); in series [2], 0.63 µg/mL (≈ 1.66 µM); in series [3], 10 µg/mL (≈ 26.4 µM); in series [4], 2.5 µg/mL (≈ 6.59 µM).
As for `CCCCOCC1=C(N)C(=O)C2=C(C1=O)N1CC3NC3C1(OC)C2COC(N)=O` (stereo not drawn) [Compound 6, 6-Demethyl-6-n-butoxymethylmitomycin C], the MIC in series [1] was 0.63 µg/mL (≈ 1.55 µM); in series [2], 5 µg/mL (≈ 12.3 µM); in series [3] it was 0.31 µg/mL (≈ 0.763 µM). The compound further returned an ED50 with Sarcoma 180 solid tumor (setting [6]) of 38 mg/kg. Also, in series [5] (ip, intraperitoneal), the 50% lethal dose (LD50) at 336 h was over 50 mg/kg.
For `COC12C(COC(N)=O)C3=C(C(=O)C(COCc4ccccc4)=C(N)C3=O)N1CC1NC12` (stereo not drawn) [Compound 7, 6-Demethyl-6-benzyloxymethylmitomycin C], the MIC was 0.63 µg/mL (≈ 1.43 µM) in series [1], 5 µg/mL (≈ 11.4 µM) in series [2] and 0.16 µg/mL (≈ 0.363 µM) in series [3]. In the series on Sarcoma 180 solid tumor (setting [6]), this compound came in with an ED50 of 25.2 mg/kg. Besides, the 50% lethal dose (LD50) at 336 h in series [5] (ip, intraperitoneal) was 60 mg/kg.
On to `COC12C(COC(N)=O)C3=C(C(=O)C(COC(C)C)=C(N)C3=O)N1CC1NC12` (stereo not drawn) [Compound 8, 6-Demethyl-6-isopropoxymethylmitomycin C], for which the MIC in series [1] is 0.63 µg/mL (≈ 1.61 µM); in series [2], 0.63 µg/mL (≈ 1.61 µM); in series [3] it was 0.31 µg/mL (≈ 0.79 µM); in series [4] it was 40 µg/mL (≈ 102 µM). In the series with Sarcoma 180 solid tumor (setting [7]), this compound had an ED50 of 14.9 mg/kg. The LD50 at 336 h in series [5] (intravenous) was over 50 mg/kg.
On to `COC12C(COC(N)=O)C3=C(C(=O)C(CO)=C(N)C3=O)N1CC1NC12` (stereo not drawn) [Compound 10, 6-Demethyl-6-hydroxymethylmitomycin C], for which the MIC in series [1] came to 5 µg/mL (≈ 14.3 µM); in series [2] it was 1.3 µg/mL (≈ 3.71 µM); in series [3] it was 10 µg/mL (≈ 28.5 µM); in series [4], 5 µg/mL (≈ 14.3 µM).
Take `CCSCC1=C(N)C(=O)C2=C(C1=O)N1CC3NC3C1(OC)C2COC(N)=O` (stereo not drawn) [Compound 11, 6-Demethyl-6-ethylthiomethylmitomycin C]: the minimum inhibitory concentration (MIC) in series [1] was determined as 0.039 µg/mL (≈ 0.0989 µM); in series [2] it was 1.3 µg/mL (≈ 3.3 µM); in series [3], 0.31 µg/mL (≈ 0.786 µM); in series [4] it was 0.16 µg/mL (≈ 0.406 µM). The compound further showed a 50% effective dose (ED50) with Sarcoma 180 solid tumor (setting [6]) of 11.6 mg/kg. This compound also registered a 50% lethal dose (LD50) at 336 h in series [5] (ip, intraperitoneal) of 30 mg/kg.
On to `COC(=O)CCSCC1=C(N)C(=O)C2=C(C1=O)N1CC3NC3C1(OC)C2COC(N)=O` (stereo not drawn) [Compound 12, 6-Demethyl-6-(2-methoxycarbonylethylthio)methylmitomycin C], for which the minimum inhibitory concentration (MIC) in series [1] amounted to 0.31 µg/mL (≈ 0.685 µM); in series [2], 0.31 µg/mL (≈ 0.685 µM); in series [3], 0.63 µg/mL (≈ 1.39 µM); in series [4], 1.3 µg/mL (≈ 2.87 µM).
On to `COC12C(COC(N)=O)C3=C(C(=O)C(CSCCO)=C(N)C3=O)N1CC1NC12` (stereo not drawn) [Compound 13, 6-Demethyl-6-(2-hydroxyethylthio)methylmitomycin C], for which the minimal inhibitory concentration (MIC) in series [1] was found to be 10 µg/mL (≈ 24.4 µM); in series [2], 5 µg/mL (≈ 12.2 µM); in series [3], 10 µg/mL (≈ 24.4 µM); in series [4] it was 40 µg/mL (≈ 97.5 µM).
For `CCCCCCCCCCCCSCC1=C(N)C(=O)C2=C(C1=O)N1CC3NC3C1(OC)C2COC(N)=O` (stereo not drawn) [Compound 14, 6-Demethyl-6-dodecylthiomethylmitomycin C], the results for the MIC in series [1], in series [3] and in series [4] were 0.2 µg/mL (≈ 0.374 µM), 0.39 µg/mL (≈ 0.729 µM) and over 50 µg/mL, respectively.
Regarding `COC12C(COC(N)=O)C3=C(C(=O)C(CSC(C)C)=C(N)C3=O)N1CC1NC12` (stereo not drawn) [Compound 16, 6-Demethyl-6-isopropylthiomethylmitomycin C], the MIC was 0.16 µg/mL (≈ 0.392 µM) in series [1], 1.3 µg/mL (≈ 3.18 µM) in series [2], 0.078 µg/mL (≈ 0.191 µM) in series [3] and 10 µg/mL (≈ 24.5 µM) in series [4]. The same compound displayed a 50% effective dose (ED50) in the series with Sarcoma 180 solid tumor (setting [7]) of 8.4 mg/kg. The same compound showed an LD50 at 336 h in series [5] (intravenous) of 37.5 mg/kg.
In the case of `COC12C(COC(N)=O)C3=C(C(=O)C(CSc4ccccc4)=C(N)C3=O)N1CC1NC12` (stereo not drawn) [Compound 17, 6-Demethyl-6-phenylthiomethylmitomycin C], the minimal inhibitory concentration (MIC) in series [1] was determined as 20 µg/mL (≈ 45.2 µM); in series [2] it was 10 µg/mL (≈ 22.6 µM); in series [3], 0.31 µg/mL (≈ 0.701 µM); in series [4], 40 µg/mL (≈ 90.4 µM). In the series on Sarcoma 180 solid tumor (setting [7]), this compound returned a median effective dose (ED50) of 6.1 mg/kg. In addition, the LD50 at 336 h in series [5] (intravenous) came to 50 mg/kg.
Consider `COC12C(COC(N)=O)C3=C(C(=O)C(CSCc4ccccc4)=C(N)C3=O)N1CC1NC12` (stereo not drawn) [Compound 18, 6-Demethyl-6-benzylthiomethylmitomycin C], for which the minimal inhibitory concentration (MIC) was determined as 0.16 µg/mL (≈ 0.35 µM) in series [1], 5 µg/mL (≈ 11 µM) in series [2], 0.039 µg/mL (≈ 0.0854 µM) in series [3] and 40 µg/mL (≈ 87.6 µM) in series [4]. The compound also registered an ED50 with Sarcoma 180 solid tumor (setting [7]) of 20.2 mg/kg. For the same compound, the LD50 at 336 h in series [5] (intravenous) came to 56.6 mg/kg.
For `COC12C(COC(N)=O)C3=C(C(=O)C4=C(NCCSC4)C3=O)N1CC1NC12` (stereo not drawn) [Compound 20], the minimum inhibitory concentration (MIC) in series [1] worked out at 2.5 µg/mL (≈ 6.37 µM); in series [2], 10 µg/mL (≈ 25.5 µM); in series [3], 5 µg/mL (≈ 12.7 µM); in series [4], 40 µg/mL (≈ 102 µM). Further, it took a dose of 12.6 mg/kg to reach the 50% effect level with Sarcoma 180 solid tumor (setting [7]) (ED50). Also, the 50% lethal dose (LD50) at 336 h in series [5] (intravenous) came out at 22.5 mg/kg.
